Laboratory results published in PubChem BioAssay (NCI).
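Dose response: 5 concentrations. Exposure: 48 h. Format: 96-well plates. Endpoint: linear interpolation; highest concentration if not reached. Abbreviation: GI50, concentration required for 50% inhibition of growth. Definition used: TGI = concentration required for complete inhibition of growth.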

Tests used:
Assay in all cases: NCI-60 cell line screen, 48 h
K-562 leukemia = system: K-562 leukemia
SK-MEL-2 melanoma = system: SK-MEL-2 melanoma
TK-10 renal = system: TK-10 renal
COLO 205 colon = system: COLO 205 colon
HCC-2998 colon = system: HCC-2998 colon
ACHN renal = system: ACHN renal
SK-MEL-28 melanoma = system: SK-MEL-28 melanoma
MOLT-4 leukemia = system: MOLT-4 leukemia
SR leukemia = system: SR leukemia
OVCAR-3 ovarian = system: OVCAR-3 ovarian

Structure (SMILES) | GI50 (K-562 leukemia) [µM] | TGI (K-562 leukemia) [µM] | GI50 (SK-MEL-2 melanoma) [µM] | TGI (SK-MEL-2 melanoma) [µM] | GI50 (TK-10 renal) [µM] | TGI (TK-10 renal) [µM] | GI50 (COLO 205 colon) [µM] | TGI (COLO 205 colon) [µM] | GI50 (HCC-2998 colon) [µM] | TGI (HCC-2998 colon) [µM] | GI50 (ACHN renal) [µM] | TGI (ACHN renal) [µM] | GI50 (SK-MEL-28 melanoma) [µM] | TGI (SK-MEL-28 melanoma) [µM] | GI50 (MOLT-4 leukemia) [µM] | TGI (MOLT-4 leukemia) [µM] | GI50 (SR leukemia) [µM] | TGI (SR leukemia) [µM] | GI50 (OVCAR-3 ovarian) [µM] | TGI (OVCAR-3 ovarian) [µM]
CC1=NN(c2nc(N)nc(/C=C\c3ccc([N+](=O)[O-])s3)n2)C(C)(C)C1 | 40.9 | > 100 | > 100 | > 100 | > 100 | > 100 | > 100 | > 100 | > 100 | > 100 | > 100 | > 100 | > 100 | > 100 | > 100 | > 100 | 49.9 | > 100 | > 100 | > 100
Cn1cc(C2=C(N3CCOCC3)C(=O)NC2=O)c2ccccc21 | > 25 | > 25 | > 25 | > 25 | > 25 | > 25 | > 25 | > 25 | > 25 | > 25 | > 25 | > 25 | > 25 | > 25 | > 25 | > 25 | > 25 | > 25 | > 25 | > 25
CCC[CH2][Sn]1([CH2]CCC)[O]CC(C)[O]1 (centres undefined) | 0.367 | 1.97 | 0.54 | 1.83 | 1.26 | 2.56 | 1.01 | 2.29 | 1.46 | 2.91 | 1.54 | 2.89 | 2.24 | 3.96 | 0.56 | 3 | 0.515 | 2.27 | 1.37 | 2.67
CC(O)c1cc(C(=O)N[C@@H](C)Cn2ccc(-c3ccc(C#N)c(Cl)c3)n2)n[nH]1 (some centres undefined) | 0.73 | > 100 | 46.6 | > 100 | > 100 | > 100 | 54 | > 100 | > 100 | > 100 | 82.5 | > 100 | 72.8 | > 100 | 0.37 | 5.15 | 8.06 | > 100 | 47.3 | > 100
O=c1oc2c(C(F)(F)F)cccc2cc1-c1csc(Nc2ccc(OCCF)cc2)n1 | 0.0348 | > 100 | 0.0593 | > 39.9 | 0.0838 | 81 | 0.0268 | 0.0729 | 0.0423 | > 100 | 0.0609 | 13.5 | 1.32 | > 66.4 | 0.0418 | > 100 | 0.0383 | > 43.6 | 0.0357 | 5.75
CC#Cc1nc(Nc2cc(C)[nH]n2)c2ccccc2n1 | 11.7 | > 100 | 2.92 | 8.38 | 3.57 | 21.2 | 3.26 | 10.3 | 2.43 | 5.48 | 2.74 | 14.1 | 7.76 | > 100 | 5.33 | > 100 | 5.07 | > 100 | 3.38 | 12.1
CS(=O)(=O)N(c1cc(-c2ccc3ncnc(Nc4cccc(Cl)c4)c3c2)cnc1Cl)S(C)(=O)=O | 1.23 | 45.1 | 0.469 | 2.09 | 0.145 | 0.985 | 0.421 | 2.04 | 0.69 | 2.53 | 0.412 | > 100 | 0.306 | 11.1 | 0.334 | 1.31 | 0.696 | 6.68 | 0.333 | 1.88
O=C(O)C(Oc1nc(=S)[nH]c(=S)[nH]1)(c1ccc(Cl)cc1)c1ccc(Cl)cc1 |  | > 100 |  | > 100 |  | > 100 |  | > 100 |  | > 100 |  | > 100 |  | > 100 |  | > 100 |  | > 100 |  | > 100
CCCCCCCCCCCCCCCC1=NC(C)(C)CN1C(C)C | 0.448 | 1.72 | 1.63 | 3.07 | 1.44 | 2.74 | 1.5 | 2.83 | 1.35 | 2.64 | 1.52 | 2.84 | 1.64 | 3 | 1.16 | 2.73 | 0.254 | 1.36 | 0.824 | 2.09
O=C1C(Cl)=C(Nc2cccc(O)c2)C(=O)N1Cc1ccc(Cl)cc1Cl | 4.81 | 29.7 | 1.25 | 11.1 | 13.6 | 28.4 | 3.11 | 30.2 | 3.55 | 16.4 | 5.59 | 17.7 | 3.89 | 18.3 | 3.22 | 19.2 | 1.88 | 11.9 | 12.1 | 26.4
CC(=C/c1ccccc1)/C=C1/NC(=S)N(/C=C2\C(=O)Oc3ccccc3C2=O)C1=O |  | > 100 |  | > 100 |  | > 100 |  | > 100 |  | > 100 |  | > 100 |  | > 100 |  | > 100 |  | > 100 |  | > 100
O=C(CCc1ccc(O)cc1)N/N=C/c1cc(Br)ccc1O | 3.12 | 28.6 | 5.28 | 38.3 | 7.35 | > 100 | 14 | > 100 | 7.12 | 96.9 | 3.33 | > 100 | 5.72 | > 100 | 2.41 | 11.2 | 2.52 | 9.66 | 4.03 | 23.6
N#CC1C=Cc2c(ccc3ccccc23)N1C(=O)c1ccccc1 (centres undefined) | 0.0537 | > 100 | 4.61 | > 60.7 | 3.78 | > 65.8 | 0.251 | 0.706 | 0.43 | > 47.6 | 0.352 | > 100 | 0.723 | > 100 | 0.421 | > 100 | 0.1 |  | 0.167 | 0.574
CC(C)=CCCC(C)C1=C(O)C(=O)C(C)=CC1=O (centres undefined) |  | 4.37 |  | 34 |  | 23.5 |  | 18.2 |  | 27.9 |  | 3.98 |  | > 42.4 |  | 5.12 |  | 5.39 |  | 18.3
O=C(O)c1cc2ccccc2c2c1C(=O)c1ccccc1-2 |  | > 100 |  | > 100 |  | > 100 |  | > 100 |  | > 100 |  | > 100 |  | > 100 |  | > 100 |  | > 100 |  | > 100
NNC(=O)C(=O)N/N=C(\CCC(=O)Nc1ccc(Cl)cc1)Cc1nc2ccccc2s1 |  | > 100 |  | > 100 |  | > 100 |  | > 100 |  | > 100 |  | > 100 |  | > 100 |  | > 100 |  | 68.5 |  | > 100
CCN(CC)c1ccc(/C=C/C=C2\NC(=O)NC2=O)cc1 | 3.7 | > 100 | 3.5 | 53.6 | 6.54 | 64.2 | 3.22 | 16.2 | 2.44 | 29.1 | 7.24 | > 100 | 27.1 | > 100 | 6.49 | > 100 | 0.446 | > 100 | 1.95 | 5.29
Nc1ncc(-c2cccc(S(N)(=O)=O)c2)c2scc(-c3ccc(F)c(Cl)c3)c12 | 0.705 | > 11.7 | 5.88 | 10.9 | 6.58 | 16.4 | 5.92 | 11.8 | 6.7 | 13.3 | 6.36 | > 25 | 8.8 | > 23.3 | 5.35 | > 19.2 | 7.12 | > 15.9 | 5.42 | 12.5
O=C(CCC(=O)C1CCC/C1=N/O)Nc1ccc(Cl)cc1 (centres undefined) |  | > 100 |  | > 100 |  | > 100 |  | > 100 |  | > 100 |  | > 100 |  | > 100 |  | > 100 |  | > 100 |  | > 100
COc1ccc2ccc3oc([N+](=O)[O-])cc3c2c1 | 0.259 | > 100 | 0.242 | 0.509 | 0.56 | 6.52 | 0.157 | 0.432 | 0.171 | 0.416 | 0.0402 | 1.44 | 0.202 | 0.54 | 0.0745 | > 100 | 0.0827 | 11.7 | 0.255 | 0.754
COc1c(B(O)O)cc(F)cc1-c1nc2ccc3[nH]ncc3c2c2c1CCCC2 | 3.27 | > 100 | 2.67 | 7.05 | < 0.01 | 9.43 | 1.61 | 4.97 | 2.08 | 5.61 | 1.12 | 16.3 | 2.69 | 8.47 | 1.18 | > 100 | 0.108 | > 38.6 | 2.95 | 10.2
Cc1cc(Nc2cc(N)ncn2)c(=O)n2c1C(=O)NC21CCCCC1 | > 100 | > 100 | 58.2 | > 100 | > 100 | > 100 | > 100 | > 100 | > 100 | > 100 | 25.3 | > 100 | > 100 | > 100 | > 100 | > 100 | > 100 | > 100 | > 100 | > 100
O=C1c2ccccc2C(=O)c2[nH]c(Cc3ccc(F)cc3)nc21 |  | > 100 |  | 29 |  | 53.1 |  | 41 |  | 42.8 |  | 31.2 |  | 35 |  | 71.2 |  | 55.5 |  | 38.2
Cc1cccc(Cc2cnc(NC(=O)CCc3ccc(C)o3)s2)c1 | 0.0541 | > 100 | 0.404 | > 100 | 1.49 | > 100 | 0.227 | 0.716 | 0.409 | > 100 | 0.526 | > 100 | 2.06 | > 100 | 0.371 | > 100 | 0.0543 | > 100 | 0.192 | 0.731
